# Laboratory results published in patent EP3714904B1, “IMINODIACETIC ACID SUBSTITUTED CYCLODEXTRINS AS POTENTIATORS OF BETA-LACTAM ANTIBIOTICS” (NATIONAL CENTER FOR SCIENTIFIC RESEARCH "DEMOKRITOS" (NCSRD), priority 2019, dated 2020).
# How the values were obtained:
# [1] = test system: NDM-1 producing K. pneumoniae strain LA26; experiment: Murine sepsis model: single dose treatment scheme-2; format: in vivo, CD-1 mice; details: single dose 10 mg/kg meropenem + 120 mg/kg β-IDACYD
# Experimental: Example 9. […] Blood samples were collected at 0, 6 and 24 hours after injection of a single dose of antibiotic (4 infected animals for each timepoint), were serially diluted in normal saline (10^-1 to 10^-9) and plated on MH agar plates which were incubated for 16 hours at 37°C for determination of viable organisms. […] The resulting 3.0log10 reduction in the blood bacterial load in the presence of 120 mg/kg of the inhibitor β-IDACYD compared to the antibiotic itself confirmed the high repotentiation abilities of the inhibitor to carbapenems even for suboptimal antibiotic doses. […] Treatment was given in a form of a single shot 2h after infection and blood was drawn 0h, 6h and 24h post treatment initiation. All groups were of n=10. Error bars are indicative of SEM (n=2 replicates).
# [2] = biological target: T1, MBL containing crude enzyme preparation (Kpn LA-26 NDM-1) (Klebsiella pneumoniae, UniProt C7C422); experiment: 1H NMR monitoring of meropenem hydrolysis by MBL crude enzyme preparation; format: biochemical; details: meropenem 0.18 mM, β-IDACYD 1.9 mM, over a 12 h period
# T1 construct: an MBL containing crude enzyme preparation (Kpn LA-26 NDM-1, 485 µL); endogenous in cells; host or cells: Klebsiella pneumoniae clinical strain LA-26 (crude enzyme preparation)
# T1 sequence (C7C422 29-270 limits assumed): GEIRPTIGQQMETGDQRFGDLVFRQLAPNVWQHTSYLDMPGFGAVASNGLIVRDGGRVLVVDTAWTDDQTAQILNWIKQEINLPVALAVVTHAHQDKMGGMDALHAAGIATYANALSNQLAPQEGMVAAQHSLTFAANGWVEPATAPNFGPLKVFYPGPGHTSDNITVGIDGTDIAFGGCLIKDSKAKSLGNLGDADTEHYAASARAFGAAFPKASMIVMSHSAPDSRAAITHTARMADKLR
# [3] = test system: Providencia stuartii; experiment: MIC of β-lactams alone or with 50 µM IDACYD against clinical isolates; format: cell-based
# Experimental: (§1) Further the in-vitro inhibitory activity of IDACYDs was tested against highly resistant pathogens. Tables 3, 4 and 5 show the effect of IDACYDs using a collection of 36 highly resistant Gram negative strains (Table 2, Kirby-Bauer disc diffusion method) producing NDM, VIM and IMP type MBLs as well as 6 isolates expressing serine beta-lactamases (ESBLs, AmpCs). […] Clinical isolates co-expressing ESBLs and/or AmpC β-lactamases along with MBLs where re-sensitized to both imipenem and meropenem, as expected. Table 2: Collection of clinical isolates used for in-vitro evaluation
# [4] = test system: Serratia marcescens; experiment: as above; format: cell-based; details: isolate EUG-815 (VIM, CMY)
# Experimental: as §1
# [5] = test system: Escherichia coli; experiment: as above; format: cell-based
# Experimental: as §1
# [6] = test system: Proteus mirabilis; experiment: as above; format: cell-based
# Experimental: as §1
# [7] = test system: Acinetobacter baumannii; experiment: as above; format: cell-based
# Experimental: as §1
# [8] = test system: Enterobacter gergoviae; experiment: as above; format: cell-based
# Experimental: as §1
# [9] = test system: Klebsiella pneumoniae; experiment: as above; format: cell-based
# Experimental: Further the in-vitro inhibitory activity of IDACYDs was tested against highly resistant pathogens. […] Table 2: Collection of clinical isolates used for in-vitro evaluation
structure (smiles),measurement,setting,value
CO[C@@H]1[C@@H](OC)[C@H]2O[C@H]3[C@H](OC)[C@@H](OC)[C@@H](O[C@H]4[C@H](OC)[C@@H](OC)[C@@H](O[C@H]5[C@H](OC)[C@@H](OC)[C@@H](O[C@H]6[C@H](OC)[C@@H](OC)[C@@H](O[C@H]7[C@H](OC)[C@@H](OC)[C@@H](O[C@H]8[C@H](OC)[C@@H](OC)[C@@H](O[C@@H]1[C@@H](CN(CC(=O)O)CC(=O)O)O2)O[C@@H]8CN(CC(=O)O)CC(=O)O)O[C@@H]7CN(CC(=O)O)CC(=O)O)O[C@@H]6CN(CC(=O)O)CC(=O)O)O[C@@H]5CN(CC(=O)O)CC(=O)O)O[C@@H]4CN(CC(=O)O)CC(=O)O)O[C@@H]3CN(CC(=O)O)CC(=O)O [β-IDACYD],reduction in the blood bacterial load compared to the antibiotic itself,[1],3.0 log10
same,mice rescued (survival),[1]; within 48 h,50%
same,hydrolysis of meropenem in the presence of β-IDACYD,[2],no signals of hydrolysis of the drug could be observed
same,Ceftazidime/ 50µM β-IDACYD MIC,"[3]; isolate ALX- 21 (VIM, VEB)",16 µg/mL
same,Imipenem /50µM β-IDACYD MIC,"[3]; isolate ALX- 21 (VIM, VEB)",0.25 µg/mL
same,Meropenem /50µM β-IDACYD MIC,"[3]; isolate ALX- 21 (VIM, VEB)",<0.25 µg/mL
same,Imipenem /50µM β-IDACYD MIC,[3]; isolate ALX-27 (VIM),<0.125 µg/mL
same,Meropenem /50µM β-IDACYD MIC,[3]; isolate ALX-27 (VIM),<0.25 µg/mL
same,Ceftazidime/ 50µM β-IDACYD MIC,[3]; isolate ESDY-4559 (VIM),<0.25 µg/mL
same,Imipenem /50µM β-IDACYD MIC,[3]; isolate ESDY-4559 (VIM),<0.125 µg/mL
same,Meropenem /50µM β-IDACYD MIC,[3]; isolate ESDY-4559 (VIM),<0.25 µg/mL
same,Imipenem /50µM β-IDACYD MIC,"[3]; isolate ESDY-4563 (VIM, VEB)",<0.125 µg/mL
same,Meropenem /50µM β-IDACYD MIC,"[3]; isolate ESDY-4563 (VIM, VEB)",<0.25 µg/mL
same,Ceftazidime/ 50µM β-IDACYD MIC,[4],<0.25 µg/mL
same,Imipenem /50µM β-IDACYD MIC,[4],<0.125 µg/mL
same,Meropenem /50µM β-IDACYD MIC,[4],<0.25 µg/mL
same,Ceftazidime/ 50µM β-IDACYD MIC,[5]; isolate TZAN-116 (VIM),<0.25 µg/mL
same,Imipenem /50µM β-IDACYD MIC,[5]; isolate TZAN-116 (VIM),<0.125 µg/mL
same,Meropenem /50µM β-IDACYD MIC,[5]; isolate TZAN-116 (VIM),<0.25 µg/mL
same,Imipenem /50µM β-IDACYD MIC,[5]; isolate TZAN-541 (VIM),<0.125 µg/mL
same,Meropenem /50µM β-IDACYD MIC,[5]; isolate TZAN-541 (VIM),<0.25 µg/mL
same,Imipenem /50µM β-IDACYD MIC,"[6]; isolate ALX-13 (VIM, VEB)",1 µg/mL
same,Meropenem /50µM β-IDACYD MIC,"[6]; isolate ALX-13 (VIM, VEB)",0.5 µg/mL
same,Imipenem /50µM β-IDACYD MIC,"[6]; isolate ESDY-17 (VIM, CMY)",<0.125 µg/mL
same,Meropenem /50µM β-IDACYD MIC,"[6]; isolate ESDY-17 (VIM, CMY)",<0.25 µg/mL
same,Ceftazidime/ 50µM β-IDACYD MIC,"[6]; isolate ESDY-15184 (VIM, CMY)",<0.25 µg/mL
same,Imipenem /50µM β-IDACYD MIC,"[6]; isolate ESDY-15184 (VIM, CMY)",0.125 µg/mL
same,Meropenem /50µM β-IDACYD MIC,"[6]; isolate ESDY-15184 (VIM, CMY)",<0.25 µg/mL
same,Imipenem /50µM β-IDACYD MIC,"[6]; isolate ESDY-15315 (VIM, CMY)",<0.125 µg/mL
same,Meropenem /50µM β-IDACYD MIC,"[6]; isolate ESDY-15315 (VIM, CMY)",<0.25 µg/mL
same,Imipenem /50µM β-IDACYD MIC,"[7]; isolate TZAN-40 (VIM, OXA-58)",0.25 µg/mL
same,Meropenem /50µM β-IDACYD MIC,"[7]; isolate TZAN-40 (VIM, OXA-58)",2 µg/mL
same,Imipenem /50µM β-IDACYD MIC,"[7]; isolate TZAN-42 (VIM, OXA-58)",2 µg/mL
same,Meropenem /50µM β-IDACYD MIC,"[7]; isolate TZAN-42 (VIM, OXA-58)",8 µg/mL
same,Imipenem /50µM β-IDACYD MIC,"[8]; isolate AK-5227 (VIM, CMY)",1 µg/mL
same,Meropenem /50µM β-IDACYD MIC,"[8]; isolate AK-5227 (VIM, CMY)",<0.25 µg/mL
same,Imipenem /50µM β-IDACYD MIC,"[8]; isolate AK-5240 (VIM, CMY)",<0.125 µg/mL
same,Meropenem /50µM β-IDACYD MIC,"[8]; isolate AK-5240 (VIM, CMY)",<0.25 µg/mL
same,Imipenem /50µM β-IDACYD MIC,[9]; isolate 6/100 (VIM),1 µg/mL
same,Meropenem /50µM β-IDACYD MIC,[9]; isolate 6/100 (VIM),1 µg/mL
same,Imipenem /50µM β-IDACYD MIC,[9]; isolate 2489 (NDM),0.5 µg/mL
same,Meropenem /50µM β-IDACYD MIC,[9]; isolate 2489 (NDM),1 µg/mL
same,Imipenem /50µM β-IDACYD MIC,"[9]; isolate 2685 (VIM, CMY, CTXM)",0.5 µg/mL
same,Meropenem /50µM β-IDACYD MIC,"[9]; isolate 2685 (VIM, CMY, CTXM)",<0.25 µg/mL
same,Ceftazidime/ 50µM β-IDACYD MIC,"[9]; isolate ALX-47 (OXA-48,CTX-M)",>256 µg/mL
same,Imipenem /50µM β-IDACYD MIC,"[9]; isolate ALX-47 (OXA-48,CTX-M)",4 µg/mL
same,Meropenem /50µM β-IDACYD MIC,"[9]; isolate ALX-47 (OXA-48,CTX-M)",4 µg/mL
same,Imipenem /50µM β-IDACYD MIC,"[9]; isolate ESDY-1780 (VIM, KPC)",8 µg/mL
same,Meropenem /50µM β-IDACYD MIC,"[9]; isolate ESDY-1780 (VIM, KPC)",32 µg/mL
same,Imipenem /50µM β-IDACYD MIC,[9]; isolate ESDY-2681 (VIM-27),<0.125 µg/mL
same,Meropenem /50µM β-IDACYD MIC,[9]; isolate ESDY-2681 (VIM-27),<0.25 µg/mL
same,Ceftazidime/ 50µM β-IDACYD MIC,[9]; isolate ESDY-5742 (IMP),1 µg/mL
same,Imipenem /50µM β-IDACYD MIC,[9]; isolate ESDY-5742 (IMP),<0.125 µg/mL
same,Meropenem /50µM β-IDACYD MIC,[9]; isolate ESDY-5742 (IMP),<0.25 µg/mL
